Measurements: US20130231307A1, “NOVEL ANTIVIRAL ACYCLIC NUCLEOSIDE PHOSPHONATES” (CENTRE NATIONAL DE LA RECHERCHE SCIENTIFIQUE, priority 2010, published 2013)
Read-outs that look alike come from different tables or passages of the source.

Tests used:
[1] = in vivo; cited from earlier work
[2] = test system: herpes simplex virus type 1 (HSV-1) (KOS)
[3] = test system: HSV-1 TK^− (KOS acyclovir resistant, ACV)
[4] = test system: thymidine kinase-deficient VZV strain 07/1
DNA viruses = format: cell-based
UMP-CMP kinase (hUCK) = molecular target: T1, UMP-CMP kinase (hUCK) (Homo sapiens, UniProt P30085); conditions: cited from earlier work
T1 sequence (P30085 1-196): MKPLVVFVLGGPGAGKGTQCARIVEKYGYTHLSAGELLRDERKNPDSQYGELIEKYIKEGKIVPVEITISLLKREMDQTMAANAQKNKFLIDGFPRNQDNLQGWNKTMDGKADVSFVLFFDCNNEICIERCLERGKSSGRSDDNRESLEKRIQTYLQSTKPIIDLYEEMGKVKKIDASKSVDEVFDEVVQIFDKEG

In the case of Nc1ncnc2c1ncn2CCOCP(=O)(O)OP(=O)(O)OP(=O)(O)O [PMEA-PP], the “half-life in the body” value [1] is given as > 15 H.
With CC(C)(C)C(=O)OCOP(=O)(C/C=C/Cn1cc(Br)c(=O)[nH]c1=O)OCOC(=O)C(C)(C)C [Ie1, (E)-N^1-(4′-bis(POM)-phosphinyl-2′-butenyl)-5-bromo-uracil] the “inhibitory activity against HSV-1” value [2] was “most inhibitory”, the “inhibitory activity against HSV-2” value (HSV-2 (G)) was “most inhibitory” and the “antiviral activity against mutant TK-deficient HSV-1 TK^−” value [3] was “pronounced antiviral activity”. For the same molecule, the “inhibitory activity against VZV” value (VZV strain OKA) was “most inhibitory” and the “antiviral activity against mutant TK-deficient VZV TK” value [4] was “pronounced antiviral activity”.
With CC(C)(C)C(=O)OCOP(=O)(C/C=C\Cn1cc(Br)c(=O)[nH]c1=O)OCOC(=O)C(C)(C)C [Ie2, (Z)—N^1-(4′-bis(POM)-phosphinyl-2′-butenyl)-5-bromo-uracil] the “antiviral activity, [Z] versus corresponding [E] isomers” value (DNA viruses) was “clearly less, or not antivirally active”.
In the case of CC(C)(C)C(=O)OCOP(=O)(C/C=C\Cn1ccc(=O)[nH]c1=O)OCOC(=O)C(C)(C)C [Ia2], the “antiviral activity, [Z] versus corresponding [E] isomers” value (DNA viruses; HEL cell cultures) is reported as “clearly less, or not antivirally active”.
For Nc1ccn(C[C@@H](CO)OCP(=O)(O)O)c(=O)n1 [cidofovir], the “substrate for hUCK” value (UMP-CMP kinase (hUCK)) is given as “not a substrate for hUCK”.
